Data from patent US10428017B2, “Modulators of the cystic fibrosis transmembrane conductance regulator protein and methods of use” (AbbVie S.à.r.l., priority 2017, dated 2019).
Like-named read-outs stand apart in the source and are kept apart here.

Biological target: T1, F508delCFTR (Homo sapiens, UniProt P13569, DEL508-508)
T1 construct: expressed in transfected cells; host or cells: CFBE4lo-F508delCFTR-HRP cells (human lung derived epithelial cell line, doxycycline-inducible)
Assay: Cell Surface Expression-Horse Radish Peroxidase (CSE-HRP) Assay
Assay type: cell-based
Conditions: for EC50: CFBE4lo-F508delCFTR-HRP cells, 18-24 hours at 33° C.; for Emax / Maximum % activity (with co-corrector): maximum at any tested concentration (up to 20 μM), normalized to on-plate positive control (2 μM co-corrector); for Maximum % activity (with co-corrector): with co-corrector 2 μM
Procedure: Cell Surface Expression-Horse Radish Peroxidase (CSE-HRP) Assay
A cellular assay for measuring the F508delCFTR cell surface expression after correction with test compounds either without or with a co-corrector (2 μM of 3-[(2R,4R)-4-({[1-(2,2-difluoro-1,3-benzodioxol-5-yl)cyclopropyl]carbonyl}amino)-7-methoxy-3,4-dihydro-2H-chromen-2-yl]benzoic acid), was developed in human lung derived epithelial cell line (CFBE4lo−) (Veit G et al, (2012) Mol Biol Cell. 23(21): 4188-4202). The development was achieved by expressing the F508delCFTR mutation along with a horseradish peroxidase (HRP) in the fourth exofacial loop, and then measuring the HRP activity using luminescence readout from these cells, CFBE4lo-F508delCFTR-HRP, that were incubated overnight with the test corrector compounds, either without or with the co-corrector. For this primary assay, the CFBE4lo-F508delCFTR-HRP cells were plated in 384-well plates (Greiner Bio-one; Cat 781080) at 4,000 cells/well along with 0.5 μg/mL doxycycline to induce the F508delCFTR-HRP expression and further incubated at 37° C., 5% CO2 for 72 hours. The test compounds were then added either without or with a co-corrector at the required concentrations and further incubated for 18-24 hours at 33° C. The highest concentration tested was 20 μM with an 8-point concentration response curve using a 3-fold dilution in both the test compound without or with the co-corrector. Three replicate plates were run to determine one EC50. All plates contained negative controls (dimethyl sulfoxide, DMSO) and positive control (2 μM of 3-[(2R,4R)-4-({[1-(2,2-difluoro-1,3-benzodioxol-5-yl)cyclopropyl]carbonyl}amino)-7-methoxy-3,4-dihydro-2H-chromen-2-yl]benzoic acid) as well as on-plate concentration response of the positive control. Post incubation, the plates were washed 5× times with Dulbecco's phosphate buffered saline (DPBS), followed by the addition of the HRP substrate, luminol (50 μL), and measuring the HRP activity using luminescence readout on EnVision® Multilabel Plate Reader (Perkin Elmer; product number 2104-0010). The raw counts from the experiment were analyzed using Accelrys® Assay Explorer v3.3.
Z′ greater than 0.5 was used as passing quality control criteria for the plates.
The Z′ is defined as: 1−[3*SDPositive Control+3*SDNegative Control/Absolute(Meanpostivie Control−MeanNegative Control)] wherein “SD” is standard deviation.
The % activity measured at each of the 8 test concentrations of the test compound added either without or with a co-corrector (2 μM of 3-[(2R,4R)-4-({[1-(2,2-difluoro-1,3-benzodioxol-5-yl)cyclopropyl]carbonyl}amino)-7-methoxy-3,4-dihydro-2H-chromen-2-yl]benzoic acid) was normalized to the on-plate positive control using the following formulae: % activity(Test compound without co-corrector)=[(test compound without co-corrector response−DMSO response)/(positive control response−DMSO response)]*100 % activity(Test compound with co-corrector)=[(test compound with co-corrector response−DMSO response)/(positive control response−DMSO response)]*100
The maximum % activity achieved for the test compound either without or with a co-corrector at any tested concentration is presented in Table 1 along with the respective EC50's calculated using the following general sigmoidal curve with variable Hill slope equation (described as Model 42 in the Accelrys® Assay Explorer v3.3 software): y=(a−d)/(1+(x/c)^b)+d
General sigmoidal curve with concentration, response, top, bottom, EC50 and Hill slope. This model describes a sigmoidal curve with an adjustable baseline, a. The equation can be used to fit curves where response is either increasing or decreasing with respect to the independent variable, “x”.
“x” is a concentration of drug under test.
“a” is the maximum response, and “d” is the minimum response
“c” is the inflection point (EC50) for the curve. That is, “y” is halfway between the lower and upper asymptotes when x=c.
“b” is the slope-factor or Hill coefficient. […]

[1] = test compound without co-corrector, HRP luminescence readout, read-out: EC50 (without co-corrector)
[2] = test compound without co-corrector
[3] = with co-corrector 2 μM 3-[(2R,4R)-4-({[1-(2,2-difluoro-1,3-benzodioxol-5-yl)cyclopropyl]carbonyl}amino)-7-methoxy-3,4-dihydro-2H-chromen-2-yl]benzoic acid, read-out: EC50 (with co-corrector)

T1 sequence (P13569 with tags, fused parts or gaps DEL508-508): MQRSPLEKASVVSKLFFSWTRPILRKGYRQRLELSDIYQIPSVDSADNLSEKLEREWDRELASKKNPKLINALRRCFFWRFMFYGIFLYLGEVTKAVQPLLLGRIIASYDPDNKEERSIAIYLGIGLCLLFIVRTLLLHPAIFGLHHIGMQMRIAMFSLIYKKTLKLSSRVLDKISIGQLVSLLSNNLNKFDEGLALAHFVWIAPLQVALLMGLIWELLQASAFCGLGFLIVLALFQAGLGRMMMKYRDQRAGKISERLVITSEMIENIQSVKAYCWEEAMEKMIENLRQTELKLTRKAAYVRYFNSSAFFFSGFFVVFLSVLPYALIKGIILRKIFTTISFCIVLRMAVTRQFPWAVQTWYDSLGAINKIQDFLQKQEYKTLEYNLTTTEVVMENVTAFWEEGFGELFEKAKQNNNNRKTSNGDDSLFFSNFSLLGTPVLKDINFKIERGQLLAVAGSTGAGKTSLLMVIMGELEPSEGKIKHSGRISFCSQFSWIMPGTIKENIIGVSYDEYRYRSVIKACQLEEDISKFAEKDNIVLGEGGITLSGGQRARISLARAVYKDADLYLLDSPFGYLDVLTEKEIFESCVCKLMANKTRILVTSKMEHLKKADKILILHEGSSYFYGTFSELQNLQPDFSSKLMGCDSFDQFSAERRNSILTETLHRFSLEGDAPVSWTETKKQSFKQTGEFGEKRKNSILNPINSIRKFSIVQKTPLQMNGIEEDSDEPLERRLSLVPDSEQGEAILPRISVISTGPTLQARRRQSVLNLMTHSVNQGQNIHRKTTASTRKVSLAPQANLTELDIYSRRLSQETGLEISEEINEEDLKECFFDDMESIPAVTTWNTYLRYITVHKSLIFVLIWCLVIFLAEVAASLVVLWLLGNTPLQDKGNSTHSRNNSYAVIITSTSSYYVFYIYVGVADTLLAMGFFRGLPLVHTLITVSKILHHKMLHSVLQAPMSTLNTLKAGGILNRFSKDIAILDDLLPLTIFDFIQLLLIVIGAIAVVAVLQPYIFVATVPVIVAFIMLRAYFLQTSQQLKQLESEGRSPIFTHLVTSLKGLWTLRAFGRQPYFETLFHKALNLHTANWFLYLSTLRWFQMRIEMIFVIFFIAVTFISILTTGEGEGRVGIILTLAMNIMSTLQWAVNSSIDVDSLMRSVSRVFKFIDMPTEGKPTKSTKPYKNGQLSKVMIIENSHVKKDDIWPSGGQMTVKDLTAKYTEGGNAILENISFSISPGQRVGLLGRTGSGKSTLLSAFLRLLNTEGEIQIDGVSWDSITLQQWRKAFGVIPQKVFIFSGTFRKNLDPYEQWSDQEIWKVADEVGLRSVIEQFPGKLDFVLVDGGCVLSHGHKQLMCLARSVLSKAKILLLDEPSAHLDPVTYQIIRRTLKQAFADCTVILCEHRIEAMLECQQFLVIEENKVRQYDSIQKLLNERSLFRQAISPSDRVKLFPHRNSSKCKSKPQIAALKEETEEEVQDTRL

Row | Structure (SMILES) | EC50 [1] [µM] | Emax [2] [%] | EC50 [3] [µM] | Maximum % activity (with co-corrector)
1 | COc1ccc(Br)c2c1OCC2C(=O)NS(=O)(=O)c1cccc2ccccc12 (stereo not shown) [Example 37, 4-bromo-7-methoxy-N-(naphthalene-1-sulfonyl)-2,3-dihydro-1-benzofuran-3-carboxamide] | 3 to 10 | ≥ 150 | < 3 | +++ (≥350)
2 | COc1ccc(C(F)(F)F)c2c1[C@H](C(=O)NS(=O)(=O)c1cccc3ccccc13)CCO2 [Example 58, (4R)-5-methoxy-N-(naphthalene-1-sulfonyl)-8-(trifluoromethyl)-3,4-dihydro-2H-1-benzopyran-4-carboxamide] | < 3 | ≥ 150 | < 3 | +++ (≥350)
3 | COc1ccc(C2CCC2)c2c1[C@H](C(=O)NS(=O)(=O)c1cccc3[nH]ccc13)CCO2 [Example 104, (4R)-8-cyclobutyl-N-(1H-indole-4-sulfonyl)-5-methoxy-3,4-dihydro-2H-1-benzopyran-4-carboxamide] | < 3 | ≥ 150 | < 3 | +++ (≥350)
4 | O=C(NS(=O)(=O)c1cccc2ccccc12)C1CCOc2ccccc21 (stereo not shown) [Example 24, N-(naphthalene-1-sulfonyl)-3,4-dihydro-2H-1-benzopyran-4-carboxamide] | 3 to 10 | 50 to 150 | 3 to 10 | +++ (≥350)
5 | COc1ccc(C2CCC2)c2c1[C@H](C(=O)NS(=O)(=O)c1cccc3ccccc13)CCO2 [Example 56, (4R)-8-cyclobutyl-5-methoxy-N-(naphthalene-1-sulfonyl)-3,4-dihydro-2H-1-benzopyran-4-carboxamide] | < 3 | ≥ 150 | < 3 | +++ (≥350)
6 | COc1ccc(C2CCC2)c2c1[C@H](C(=O)NS(=O)(=O)c1cccc3c1CCCN3)CCO2 [Example 92, (4R)-8-cyclobutyl-5-methoxy-N-(1,2,3,4-tetrahydroquinoline-5-sulfonyl)-3,4-dihydro-2H-1-benzopyran-4-carboxamide] | < 3 | ≥ 150 | < 3 | +++ (≥350)
7 | COc1ccc(C2CCCC2)c2c1C(C(=O)NS(=O)(=O)c1cccc3ccccc13)CCO2 (stereo not shown) [Example 14, 8-cyclopentyl-5-methoxy-N-(naphthalene-1-sulfonyl)-3,4-dihydro-2H-1-benzopyran-4-carboxamide] | < 3 | ≥ 150 | < 3 | +++ (≥350)
8 | CCC1(C(=O)NS(=O)(=O)c2cccc3ccccc23)COc2c(C(F)(F)F)cccc21 (stereo not shown) [Example 61, 3-ethyl-N-(naphthalene-1-sulfonyl)-7-(trifluoromethyl)-2,3-dihydro-1-benzofuran-3-carboxamide] | 3 to 10 | ≥ 150 | 3 to 10 | +++ (≥350)
9 | COc1ccc(C2CCC2)c2c1[C@@H](C(=O)NS(=O)(=O)c1cccc3c1CCCN3)CC(C)(C)O2 [Example 96, (4S)-8-cyclobutyl-5-methoxy-2,2-dimethyl-N-(1,2,3,4-tetrahydroquinoline-5-sulfonyl)-3,4-dihydro-2H-1-benzopyran-4-carboxamide] | < 3 | ≥ 150 | < 3 | +++ (≥350)
10 | COc1ccc(C2CCC2)c2c1C(C(=O)NS(=O)(=O)c1cccc3c1CCCN3)CC(C)(C)O2 (stereo not shown) [Example 93, 8-cyclobutyl-5-methoxy-2,2-dimethyl-N-(1,2,3,4-tetrahydroquinoline-5-sulfonyl)-3,4-dihydro-2H-1-benzopyran-4-carboxamide] | < 3 | ≥ 150 | < 3 | +++ (≥350)
